Test results taken from PubChem BioAssay (NCI).
Several values for one entry are separate records, joined by “and”; a condition that tells them apart may be missing. Equal values may be shown once.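 Assay format: 96-well plates, 48-hour exposure. Abbreviation: GI50, concentration required for 50% inhibition of growth. TGI: concentration producing complete growth inhibition.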

Legend:
Assay in all cases: growth of human tumour cells (NCI), 48 h
[1] = system: SK-MEL-2 melanoma
[2] = system: OVCAR-8 ovarian
[3] = system: LOX IMVI melanoma
[4] = system: OVCAR-3 ovarian
[5] = system: RXF 393 renal
[6] = system: SW-620 colon
[7] = system: MCF7 breast
[8] = system: OVCAR-4 ovarian
[9] = system: SN12C renal
[10] = system: MALME-3M melanoma

SMILES	GI50 [1]	TGI [1]	GI50 [2]	TGI [2]	GI50 [3]	TGI [3]	GI50 [4]	TGI [4]	GI50 [5]	TGI [5]	GI50 [6]	TGI [6]	GI50 [7]	TGI [7]	GI50 [8]	TGI [8]	GI50 [9]	TGI [9]	GI50 [10]	TGI [10]
COC(=O)C1=C(C(=O)Nc2cccnc2)C2OC1(C(Cc1ccccc1)Oc1ccccc1)C1OC21 (configuration not stated)	12.9 µM	25.9 µM	7.94 µM	22.8 µM	1.83 µM	3.68 µM	1.78 µM	3.2 µM	1.71 µM	3.22 µM	1.69 µM	3.58 µM	1.92 µM	5.33 µM	2.05 µM	4.66 µM	3.67 µM	14.2 µM	1.6 µM	3.31 µM
N#Cc1cc(-c2ccccc2)[nH]c1-c1nccc2ccccc12	11.9 µM	81 µM	22.7 µM	> 100 µM	15.6 µM	> 100 µM	21.9 µM	> 100 µM	13.6 µM	89.1 µM	61.5 µM	> 100 µM	5.76 µM	> 100 µM	3.43 µM	> 100 µM	23.9 µM	> 100 µM	13 µM	84.5 µM
CC(/C=C/C=C/C=C/C=C/C=C/C(O)=C1/C(=O)C(CCC(=O)O)N(C)C1=O)=C\C(C)C(OC1CC(O)C(O)C(C)O1)C(C)C (configuration not stated)		12.9 µM		15.1 µM		11.5 µM		5.12 µM		11.2 µM		14.6 µM		33.6 µM		40.1 µM		13.6 µM		8.4 µM
COc1cc(C2=Nc3c/c(=C\c4c(O)[nH]c5ccc(Cl)cc45)ccc3=N2)cc(OC)c1OC	9.01 µM	30.2 µM	1.95 µM	5.24 µM	1.74 µM	4.3 µM	3.07 µM	11.1 µM	2.78 µM	7.38 µM	1.98 µM	4.41 µM	1.43 µM	3.56 µM	2.18 µM	7.9 µM	2.11 µM	6.5 µM	1.79 µM	3.71 µM
Oc1ccc(Cl)cc1Cc1cc(Cl)cc(Cc2cc(Cl)ccc2O)c1O		7.68 µM		16.8 µM		9.82 µM		11 µM		8.86 µM		13.5 µM		6.98 µM		16.2 µM		8.21 µM		5.56 µM
CN(C)c1cc2c(Nc3ccc4nc(Cc5ccccc5)[nH]c4c3)ncnc2cn1	> 16.3 µM	> 25 µM	> 17.4 µM	> 25 µM	> 17.4 µM	> 25 µM	> 18.3 µM	> 25 µM	12 µM	> 25 µM	> 21.5 µM	> 25 µM	> 15.3 µM	> 25 µM	> 20.4 µM	> 25 µM	> 16.1 µM	> 25 µM	> 16.3 µM	> 25 µM
Nc1ccn(C2OC(CO[P+](=O)OC3C(CO[P+](=O)OC4C(CO[P+](=O)OC5C(CO[P+](=O)OC6C(CO[P+](=O)OC7C(CO[P+](=O)OC8C(CO[P+](=O)OC9C(CO[P+](=O)OC%10C(CO[P+](=O)OC%11C(CO)OC(n%12ccc(N)nc%12=O)C%11(F)F)OC(n%11ccc(N)nc%11=O)C%10(F)F)OC(n%10ccc(N)nc%10=O)C9(F)F)OC(n9ccc(N)nc9=O)C8(F)F)OC(n8ccc(N)nc8=O)C7(F)F)OC(n7ccc(N)nc7=O)C6(F)F)OC(n6ccc(N)nc6=O)C5(F)F)OC(n5ccc(N)nc5=O)C4(F)F)OC(n4ccc(N)nc4=O)C3(F)F)C(O)C2(F)F)c(=O)n1 (configuration not stated)	35 µM					> 100 µM		> 100 µM	0.0618 µM	> 100 µM	0.168 µM	> 100 µM		> 100 µM	> 100 µM	> 100 µM			50.9 µM	> 100 µM
Nc1nn(C(=O)Nc2ccc(Cc3ccccc3)cc2)c2ccc(Cl)cc12	16.5 µM	> 100 µM	14.8 µM	> 100 µM	0.137 µM	20.1 µM	7.14 µM	21.6 µM	15.1 µM	34.1 µM	0.724 µM	54.3 µM	0.422 µM	18 µM	1.48 µM	49 µM	14.2 µM	48.1 µM	12 µM	> 74 µM
O=C(O[C@H]1CN[C@H](C#Cc2cc3ncnc(Nc4ccc(Cc5ccccc5)cc4)c3s2)C1)N1CCOCC1	5.41 µM	14.4 µM	5.33 µM	> 23.4 µM	4 µM	8.03 µM	3.85 µM	11 µM	1.35 µM	7.11 µM	5.93 µM	17.7 µM	5.63 µM	> 20.6 µM	6.22 µM	> 25 µM	4.08 µM	> 25 µM	4.71 µM	> 20.3 µM
Clc1cccc(Cn2cc(Cc3cn(Cc4cccc(Cl)c4)c4ccccc34)c3ccccc32)c1	> 100 µM	> 100 µM	> 100 µM	> 100 µM	33.3 µM	> 100 µM	> 100 µM	> 100 µM	> 100 µM	> 100 µM	> 100 µM	> 100 µM	> 100 µM	> 100 µM	> 100 µM	> 100 µM	> 100 µM	> 100 µM	> 100 µM	> 100 µM
Nc1ccccc1C#Cc1ccccc1C#Cc1ccccc1N	11.3 µM	30.2 µM	20.7 µM	49.4 µM	7.31 µM	20.9 µM	2.22 µM	8.24 µM	9.74 µM	32 µM	5.31 µM	18.4 µM	12.4 µM	> 100 µM	23.3 µM	80.9 µM	11.4 µM	24.5 µM	10.3 µM	24.1 µM
CCN1CCN(CCNc2nccc(-c3c(-c4cccc(O)c4)nc4sccn34)n2)S1(=O)=O	2.05 µM and 2.6 µM	10.4 µM and 7.27 µM	16.1 µM and 10.9 µM	32.5 µM and > 100 µM	4.96 µM and 2.53 µM	25.7 µM and 23.5 µM	20.1 µM and 21.4 µM	32.5 µM and > 100 µM	4.02 µM and 5.06 µM	22.7 µM and 36.3 µM	21.1 µM and 15.7 µM	32.5 µM and 92.5 µM	26 µM and 19.5 µM	32.5 µM and > 100 µM	19.5 µM and 12.1 µM	32.5 µM and > 100 µM	15.2 µM and 7.73 µM	32.5 µM and > 100 µM	0.0775 µM and 0.118 µM	0.42 µM and 0.785 µM
O=C1OCC2=C1C(c1cccc([N+](=O)[O-])c1)c1cc3c(cc1N2CCO)CCC3 (configuration not stated)	2.8 µM	48 µM	0.244 µM	> 50 µM	0.286 µM	8.29 µM	0.0961 µM	0.518 µM	0.123 µM	> 50 µM	0.179 µM	> 50 µM	0.0596 µM	> 50 µM	2.03 µM	> 50 µM	0.339 µM	> 39.9 µM	0.504 µM	35.1 µM
